Each block holds one molecule with its values, some of them ahead of it.
Legend:
[1] = biological target: Eukaryotic translation initiation factor 2-alpha kinase 1 (Homo sapiens) (UniProt Q9BQI3); experiment: Inhibition of human recombinant HRI at 500 nM in presence of ATP by radiometric assay relative to control
[2] = biological target: Serine/threonine-protein kinase SBK1 (Homo sapiens) (UniProt Q52WX2); experiment: Inhibition of human recombinant SBK1 at 500 nM related to control ULK1
[3] = biological target: T1, Serine/threonine-protein kinase Chk1 (Homo sapiens) (UniProt O14757); experiment: Inhibition of human recombinant CHK1 at 500 nM related to control ULK1
T1 sequence (whole entry): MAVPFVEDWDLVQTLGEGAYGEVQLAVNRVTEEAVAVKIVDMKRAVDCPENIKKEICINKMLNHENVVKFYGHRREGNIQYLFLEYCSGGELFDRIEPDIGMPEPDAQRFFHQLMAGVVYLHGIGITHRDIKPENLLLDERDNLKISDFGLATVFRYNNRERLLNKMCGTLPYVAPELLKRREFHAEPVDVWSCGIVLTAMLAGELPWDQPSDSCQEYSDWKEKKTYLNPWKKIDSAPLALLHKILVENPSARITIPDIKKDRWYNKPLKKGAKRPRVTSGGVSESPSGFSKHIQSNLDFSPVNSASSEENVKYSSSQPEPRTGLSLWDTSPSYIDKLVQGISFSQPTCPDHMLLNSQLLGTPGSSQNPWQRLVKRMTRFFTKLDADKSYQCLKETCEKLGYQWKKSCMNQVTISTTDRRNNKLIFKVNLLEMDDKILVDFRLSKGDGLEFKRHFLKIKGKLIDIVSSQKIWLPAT

[4] = biological target: Serine/threonine-protein kinase N2 (Homo sapiens) (UniProt Q16513); experiment: Inhibition of human recombinant PKN2 at 40 nM in presence of ATP by radiometric assay relative to control
[5] = biological target: Serine/threonine-protein kinase SIK2 (Homo sapiens) (UniProt Q9H0K1); experiment: Inhibition of human recombinant QIK at 40 nM in presence of ATP by radiometric assay relative to control
[6] = biological target: T2, Calcium/calmodulin-dependent protein kinase type IV (Homo sapiens) (UniProt Q16566); experiment: Inhibition of human recombinant CaMK4 at 40 nM in presence of ATP by radiometric assay relative to control
T2 sequence (whole entry): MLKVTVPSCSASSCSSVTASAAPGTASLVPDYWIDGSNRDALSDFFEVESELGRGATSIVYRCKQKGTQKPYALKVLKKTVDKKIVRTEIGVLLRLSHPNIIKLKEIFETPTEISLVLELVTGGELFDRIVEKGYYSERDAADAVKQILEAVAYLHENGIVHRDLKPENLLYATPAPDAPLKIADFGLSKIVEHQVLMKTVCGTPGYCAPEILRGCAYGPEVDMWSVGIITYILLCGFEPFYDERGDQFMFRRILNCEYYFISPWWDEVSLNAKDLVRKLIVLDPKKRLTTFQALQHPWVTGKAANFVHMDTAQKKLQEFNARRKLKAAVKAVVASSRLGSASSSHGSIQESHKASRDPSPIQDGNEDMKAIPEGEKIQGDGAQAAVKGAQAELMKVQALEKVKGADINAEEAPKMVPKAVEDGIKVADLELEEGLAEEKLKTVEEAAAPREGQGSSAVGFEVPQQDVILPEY

[7] = biological target: T3, Serine/threonine-protein kinase DCLK3 (Homo sapiens) (UniProt Q9C098); experiment: Inhibition of human recombinant DCAMKL3 at 40 nM in presence of ATP by radiometric assay relative to control
T3 sequence (whole entry): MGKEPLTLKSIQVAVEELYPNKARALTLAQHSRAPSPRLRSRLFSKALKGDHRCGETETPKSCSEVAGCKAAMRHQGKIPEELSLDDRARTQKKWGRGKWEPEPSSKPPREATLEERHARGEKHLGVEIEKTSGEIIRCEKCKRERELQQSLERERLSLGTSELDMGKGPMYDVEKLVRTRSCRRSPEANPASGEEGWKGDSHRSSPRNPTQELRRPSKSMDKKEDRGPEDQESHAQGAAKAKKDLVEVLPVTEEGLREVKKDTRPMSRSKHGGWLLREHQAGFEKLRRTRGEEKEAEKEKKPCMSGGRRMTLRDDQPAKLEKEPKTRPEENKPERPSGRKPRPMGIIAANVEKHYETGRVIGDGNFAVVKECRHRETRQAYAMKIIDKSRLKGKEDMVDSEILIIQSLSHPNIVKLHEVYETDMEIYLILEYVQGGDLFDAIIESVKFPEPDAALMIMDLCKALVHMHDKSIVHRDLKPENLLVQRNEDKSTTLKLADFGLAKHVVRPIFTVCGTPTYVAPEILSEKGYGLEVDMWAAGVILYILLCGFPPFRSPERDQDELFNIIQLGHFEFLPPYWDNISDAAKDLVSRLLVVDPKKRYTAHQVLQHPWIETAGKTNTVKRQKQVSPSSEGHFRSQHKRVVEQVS

[8] = biological target: Macrophage-stimulating protein receptor (Homo sapiens) (UniProt Q04912); experiment: Inhibition of human recombinant RON at 40 nM related to control ULK1
[9] = biological target: Serine/threonine-protein kinase 32B (Homo sapiens) (UniProt Q9NY57); experiment: Inhibition of human recombinant YANK2 at 15 nM in presence of ATP by radiometric assay relative to control
[10] = biological target: Cyclin-dependent kinase 4 (Homo sapiens) (UniProt P11802); experiment: Inhibition of human recombinant CDK4 at 15 nM in presence of ATP by radiometric assay relative to control
[11] = biological target: T4, Interleukin-1 receptor-associated kinase 4 (Homo sapiens) (UniProt Q9NWZ3); experiment: Inhibition of human recombinant IRAK4 at 15 nM related to control ULK1
T4 sequence (whole entry): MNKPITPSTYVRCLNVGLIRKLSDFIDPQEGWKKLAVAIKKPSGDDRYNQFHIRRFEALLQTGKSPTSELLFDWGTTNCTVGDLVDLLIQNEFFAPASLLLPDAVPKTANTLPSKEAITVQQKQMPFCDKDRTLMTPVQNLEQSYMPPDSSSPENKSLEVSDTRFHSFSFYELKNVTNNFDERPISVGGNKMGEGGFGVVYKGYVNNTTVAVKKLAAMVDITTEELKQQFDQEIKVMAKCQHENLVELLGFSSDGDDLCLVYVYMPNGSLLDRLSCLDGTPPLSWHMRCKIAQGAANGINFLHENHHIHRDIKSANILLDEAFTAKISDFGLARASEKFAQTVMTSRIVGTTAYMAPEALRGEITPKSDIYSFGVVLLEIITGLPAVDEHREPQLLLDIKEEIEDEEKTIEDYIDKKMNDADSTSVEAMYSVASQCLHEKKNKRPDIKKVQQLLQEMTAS

[12] = biological target: Calcium/calmodulin-dependent protein kinase type 1 (Homo sapiens) (UniProt Q14012); experiment: Inhibition of human recombinant CaMK1a at 15 nM related to control ULK1
[13] = biological target: 3-phosphoinositide-dependent protein kinase 1 (Homo sapiens) (UniProt O15530); experiment: Inhibition of human recombinant PDK1 at 15 nM related to control ULK1
Sequence of 3-phosphoinositide-dependent protein kinase 1 (Homo sapiens) (O15530 whole entry, looked up): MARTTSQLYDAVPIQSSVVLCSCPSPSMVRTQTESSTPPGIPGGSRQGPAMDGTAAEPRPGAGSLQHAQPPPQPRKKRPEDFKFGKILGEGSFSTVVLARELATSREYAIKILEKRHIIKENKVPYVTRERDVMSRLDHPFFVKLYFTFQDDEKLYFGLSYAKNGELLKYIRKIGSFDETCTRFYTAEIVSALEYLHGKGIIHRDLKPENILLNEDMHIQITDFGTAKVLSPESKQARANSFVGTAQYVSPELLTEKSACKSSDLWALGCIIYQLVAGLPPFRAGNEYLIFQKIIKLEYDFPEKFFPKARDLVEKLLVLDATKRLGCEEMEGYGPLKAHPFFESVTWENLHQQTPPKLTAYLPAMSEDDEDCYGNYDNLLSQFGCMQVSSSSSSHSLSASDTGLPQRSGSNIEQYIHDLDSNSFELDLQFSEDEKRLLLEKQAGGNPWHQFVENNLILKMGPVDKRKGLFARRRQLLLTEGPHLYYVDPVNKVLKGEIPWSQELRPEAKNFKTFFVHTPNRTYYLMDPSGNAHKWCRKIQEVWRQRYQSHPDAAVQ

Sequence of Eukaryotic translation initiation factor 2-alpha kinase 1 (Homo sapiens) (Q9BQI3 whole entry): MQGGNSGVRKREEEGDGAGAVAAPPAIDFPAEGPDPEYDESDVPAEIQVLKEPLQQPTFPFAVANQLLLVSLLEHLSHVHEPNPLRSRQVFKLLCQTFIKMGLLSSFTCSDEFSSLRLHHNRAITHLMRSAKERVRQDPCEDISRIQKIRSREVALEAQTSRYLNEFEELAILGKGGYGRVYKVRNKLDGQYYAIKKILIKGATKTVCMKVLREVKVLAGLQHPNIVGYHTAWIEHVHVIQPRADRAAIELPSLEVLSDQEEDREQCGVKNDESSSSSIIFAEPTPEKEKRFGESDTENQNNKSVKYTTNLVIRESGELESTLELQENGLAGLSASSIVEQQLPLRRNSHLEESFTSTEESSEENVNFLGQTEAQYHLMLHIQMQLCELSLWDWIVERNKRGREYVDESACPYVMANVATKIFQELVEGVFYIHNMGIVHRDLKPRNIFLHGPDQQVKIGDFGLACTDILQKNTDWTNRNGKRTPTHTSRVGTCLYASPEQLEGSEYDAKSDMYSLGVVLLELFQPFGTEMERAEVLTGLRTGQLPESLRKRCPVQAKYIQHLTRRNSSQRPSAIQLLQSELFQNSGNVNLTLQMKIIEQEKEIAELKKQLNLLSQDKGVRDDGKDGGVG
Sequence of Serine/threonine-protein kinase SBK1 (Homo sapiens) (Q52WX2 whole entry): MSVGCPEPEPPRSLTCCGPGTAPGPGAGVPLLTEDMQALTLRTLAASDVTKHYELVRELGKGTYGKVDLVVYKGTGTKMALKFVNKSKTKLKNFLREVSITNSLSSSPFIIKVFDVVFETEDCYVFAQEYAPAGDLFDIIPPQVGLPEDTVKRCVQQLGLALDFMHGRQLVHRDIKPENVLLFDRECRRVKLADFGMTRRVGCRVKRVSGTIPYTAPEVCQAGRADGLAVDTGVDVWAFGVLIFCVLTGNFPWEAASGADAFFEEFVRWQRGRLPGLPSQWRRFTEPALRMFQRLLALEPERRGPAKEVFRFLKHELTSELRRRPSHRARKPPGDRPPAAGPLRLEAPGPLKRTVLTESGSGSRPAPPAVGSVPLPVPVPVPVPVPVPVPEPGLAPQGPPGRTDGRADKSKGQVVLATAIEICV
Sequence of Serine/threonine-protein kinase 32B (Homo sapiens) (Q9NY57 whole entry): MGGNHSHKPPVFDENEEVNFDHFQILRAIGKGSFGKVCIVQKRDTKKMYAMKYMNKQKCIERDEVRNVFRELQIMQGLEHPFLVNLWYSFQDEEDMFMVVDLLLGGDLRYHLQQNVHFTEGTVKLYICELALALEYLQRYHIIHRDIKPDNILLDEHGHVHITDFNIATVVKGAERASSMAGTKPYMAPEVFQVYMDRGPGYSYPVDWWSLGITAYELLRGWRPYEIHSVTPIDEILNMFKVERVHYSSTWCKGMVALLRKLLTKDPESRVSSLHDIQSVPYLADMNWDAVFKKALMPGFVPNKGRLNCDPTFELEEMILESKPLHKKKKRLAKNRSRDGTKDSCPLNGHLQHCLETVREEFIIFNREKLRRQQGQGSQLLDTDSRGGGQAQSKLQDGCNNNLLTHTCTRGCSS
Sequence of Calcium/calmodulin-dependent protein kinase type 1 (Homo sapiens) (Q14012 whole entry, looked up): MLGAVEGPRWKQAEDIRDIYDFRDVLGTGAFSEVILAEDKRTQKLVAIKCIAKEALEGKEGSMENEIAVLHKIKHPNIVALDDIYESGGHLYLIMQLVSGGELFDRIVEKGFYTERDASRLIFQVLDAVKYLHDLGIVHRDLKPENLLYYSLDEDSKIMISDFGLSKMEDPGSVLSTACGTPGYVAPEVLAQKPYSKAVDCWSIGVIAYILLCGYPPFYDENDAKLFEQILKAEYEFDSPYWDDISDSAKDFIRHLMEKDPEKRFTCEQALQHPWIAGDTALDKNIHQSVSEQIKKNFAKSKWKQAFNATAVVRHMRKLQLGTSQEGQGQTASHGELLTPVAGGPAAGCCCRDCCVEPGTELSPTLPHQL
Sequence of Cyclin-dependent kinase 4 (Homo sapiens) (P11802 whole entry): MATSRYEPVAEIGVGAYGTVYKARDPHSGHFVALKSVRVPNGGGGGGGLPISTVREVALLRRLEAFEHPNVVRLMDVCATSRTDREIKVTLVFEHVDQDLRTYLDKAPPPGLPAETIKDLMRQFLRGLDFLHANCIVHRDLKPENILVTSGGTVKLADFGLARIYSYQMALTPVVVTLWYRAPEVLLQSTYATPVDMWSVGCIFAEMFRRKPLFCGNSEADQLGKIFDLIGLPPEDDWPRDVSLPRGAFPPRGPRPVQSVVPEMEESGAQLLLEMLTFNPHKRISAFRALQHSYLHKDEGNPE
Sequence of Macrophage-stimulating protein receptor (Homo sapiens) (Q04912 25-304 limits assumed): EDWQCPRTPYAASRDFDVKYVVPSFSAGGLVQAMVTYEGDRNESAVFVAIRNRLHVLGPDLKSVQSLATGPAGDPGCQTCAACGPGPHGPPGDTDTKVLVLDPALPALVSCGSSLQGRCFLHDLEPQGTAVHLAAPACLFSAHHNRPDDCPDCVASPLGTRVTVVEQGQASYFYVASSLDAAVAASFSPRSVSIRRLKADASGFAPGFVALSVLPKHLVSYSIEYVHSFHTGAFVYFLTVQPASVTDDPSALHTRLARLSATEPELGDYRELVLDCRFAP
Sequence of Macrophage-stimulating protein receptor (Homo sapiens) (Q04912 310-1400 limits assumed): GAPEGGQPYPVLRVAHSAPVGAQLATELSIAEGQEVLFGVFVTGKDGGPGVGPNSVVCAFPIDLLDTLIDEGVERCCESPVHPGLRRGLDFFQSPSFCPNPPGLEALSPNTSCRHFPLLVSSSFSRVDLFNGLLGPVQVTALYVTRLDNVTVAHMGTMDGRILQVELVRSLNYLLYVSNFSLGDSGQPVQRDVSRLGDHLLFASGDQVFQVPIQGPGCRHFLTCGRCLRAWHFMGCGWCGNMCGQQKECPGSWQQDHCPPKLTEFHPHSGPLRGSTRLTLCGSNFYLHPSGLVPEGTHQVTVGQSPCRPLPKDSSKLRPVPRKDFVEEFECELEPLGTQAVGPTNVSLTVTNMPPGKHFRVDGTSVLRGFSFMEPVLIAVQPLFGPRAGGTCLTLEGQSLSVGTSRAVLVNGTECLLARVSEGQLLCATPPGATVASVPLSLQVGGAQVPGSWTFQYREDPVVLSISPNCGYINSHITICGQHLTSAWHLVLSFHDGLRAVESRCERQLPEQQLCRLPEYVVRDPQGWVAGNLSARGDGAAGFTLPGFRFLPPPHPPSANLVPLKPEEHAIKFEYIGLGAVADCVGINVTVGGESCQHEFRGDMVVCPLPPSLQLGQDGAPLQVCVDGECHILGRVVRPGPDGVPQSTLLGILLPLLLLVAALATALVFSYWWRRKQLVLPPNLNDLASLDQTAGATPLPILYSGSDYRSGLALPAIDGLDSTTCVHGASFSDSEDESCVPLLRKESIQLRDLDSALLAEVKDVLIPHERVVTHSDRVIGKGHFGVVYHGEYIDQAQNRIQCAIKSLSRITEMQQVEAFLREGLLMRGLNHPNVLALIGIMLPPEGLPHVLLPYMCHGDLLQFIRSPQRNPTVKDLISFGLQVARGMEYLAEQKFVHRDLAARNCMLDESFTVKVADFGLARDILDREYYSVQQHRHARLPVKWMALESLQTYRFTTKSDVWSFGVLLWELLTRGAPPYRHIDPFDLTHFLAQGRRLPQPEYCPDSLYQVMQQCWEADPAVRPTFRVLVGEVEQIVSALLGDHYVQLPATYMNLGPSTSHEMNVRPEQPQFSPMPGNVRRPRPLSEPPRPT
Sequence of Serine/threonine-protein kinase SIK2 (Homo sapiens) (Q9H0K1 whole entry, looked up): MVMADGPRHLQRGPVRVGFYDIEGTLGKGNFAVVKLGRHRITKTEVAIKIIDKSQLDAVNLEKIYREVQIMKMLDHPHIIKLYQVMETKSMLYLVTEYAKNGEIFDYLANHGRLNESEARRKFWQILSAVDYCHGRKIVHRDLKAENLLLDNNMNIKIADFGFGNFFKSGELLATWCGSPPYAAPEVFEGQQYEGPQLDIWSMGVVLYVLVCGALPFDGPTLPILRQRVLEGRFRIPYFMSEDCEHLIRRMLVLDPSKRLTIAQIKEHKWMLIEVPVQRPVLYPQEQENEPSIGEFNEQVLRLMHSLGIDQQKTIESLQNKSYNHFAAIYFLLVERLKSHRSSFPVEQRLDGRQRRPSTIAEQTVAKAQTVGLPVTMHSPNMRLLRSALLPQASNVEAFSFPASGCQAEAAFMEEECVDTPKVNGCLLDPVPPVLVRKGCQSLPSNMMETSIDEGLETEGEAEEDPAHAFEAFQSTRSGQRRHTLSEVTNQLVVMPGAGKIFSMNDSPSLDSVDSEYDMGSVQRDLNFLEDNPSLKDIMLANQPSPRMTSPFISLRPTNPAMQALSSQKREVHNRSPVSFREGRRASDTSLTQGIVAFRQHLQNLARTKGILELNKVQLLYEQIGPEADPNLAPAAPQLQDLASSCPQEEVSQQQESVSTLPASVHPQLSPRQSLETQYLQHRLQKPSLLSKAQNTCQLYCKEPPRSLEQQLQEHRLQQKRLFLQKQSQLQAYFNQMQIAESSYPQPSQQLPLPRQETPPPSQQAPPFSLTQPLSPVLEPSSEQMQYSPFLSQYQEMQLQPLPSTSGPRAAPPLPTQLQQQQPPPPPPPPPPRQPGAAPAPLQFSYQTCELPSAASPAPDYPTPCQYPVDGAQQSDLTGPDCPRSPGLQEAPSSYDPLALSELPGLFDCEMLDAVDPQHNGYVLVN

inhibition [1]: 0%
fold change (FC) [2]: 0.68
fold change (FC) [3]: 0.05
SMILES: CNC(=O)c1ccccc1Oc1nc(Nc2cc(OC)c(OC)c(OC)c2)ncc1Br

inhibition [4]: 0%
inhibition [5]: 54%
inhibition [6]: 0%
inhibition [7]: 2%
fold change (FC) [8]: 0
SMILES: O=C(N[C@@H](C1CC1)C(F)(F)F)c1cc(-c2cnn3cc(-c4ccc(F)cc4)cnc23)cs1

inhibition [9]: 0%
inhibition [10]: 11%
fold change (FC) [11]: 0
fold change (FC) [12]: 0.08
fold change (FC) [13]: 0.07
SMILES: CC(C)[C@H](NC(=O)c1cc(-c2cnn3cc(-c4ccc(OCCN5CCCCC5)cc4)cnc23)cs1)C(F)(F)F
